Reference: patent publication US11318139B2, “Methods for treating brain metastases using combinations of anti-P13K and anti-mTOR agents” (Dana-Farber Cancer Institute, Inc., priority 2016, dated 2022)

How the values were obtained:
[1] = system: DF-BM354; experiment: In vivo treatment of orthotopic HER2-positive BCBM patient-derived xenograft DF-BM354 (bioluminescence imaging, survival); parameters: species or system mice; conditions: BKM120 PO 30 mg/kg QD; RAD001 PO 7.5 mg/kg QD; MEK162 PO 15 mg/kg; GNE-317 PO 40 mg/kg QD
Description: Luciferase-expressing tumors were then propagated in mice.
The signals were analyzed with CareStream MI Software.
All compounds were purchased from Haoyuan ChemExpress Co.
GNE-317 obtained from Genetcch was dissolved in 0.5% methylcellulose/0.2% Tween 80 and given oral once/day at 40 mg/kg.

[2] = statement with literature citation; cited from earlier work
[3] = system: PI3K pathway signaling (pAKT, pS6RP, p4EBP1), Ki67 and cleaved caspase-3 in DF-BM355 tumors; experiment: Pharmacodynamic IHC / Western blot analysis of treated DF-BM355 tumors; conditions: IHC after 4 days of treatment
Description: Diaminobenzidine (DAB), brightfield staining was performed according to standard protocols using DAB EnVision+™ System (Dako) on paraffin sections. Briefly five micron thick sections were deparaffinized with xylene, followed by gradation washes in 100%, 95%, 80% ethyl alcohol before performing heat antigen retrieval in 10 mM sodium citrate buffer (pH 6.0) for 20 minutes. Subsequently, sections were treated with peroxidase block (Dako) for ten minutes followed by overnight incubation at 4° C. with the following primary antibodies: polyclonal PTEN (Cell Signaling #9559), pS6RP-Ser235/236 (Cell Signaling #2211), p4EBP1-Thr37/46 (Cell Signaling #2855), or cleaved caspase-3 (Cell Signaling #9664) from Cell Signaling; estrogen receptor (ER) (ThermoScientific SP1) or HER2 (ThermoScientific SP3) from ThermoScientific; or progesterone receptor (PR) (Dako PgR 636), CK7 (Dako), GFAP (Dako #z0334), OLIG2 (Dako), or monoclonal mouse anti-Ki67 (Dako MIB-1 or Vector lab #VP K-451) from Dako or Vector lab. […]
Ki67 and cleaved caspase-3 indexes were calculated as a percentage of positive cells in 4-5 random areas of each sample. Images were captured at 40× or 60× magnification and quantifications of Ki67 and cleaved caspase-3 immunoreactivity were performed using the ImmunoRatio plugin provided in the Image J software. […]

Compound | therapeutic response / tumor growth of DF-BM354 (bioluminescence imaging, survival) [1] | blood-brain barrier penetration [2] | number of Ki67-positive cells (cell proliferation) in DF-BM355 tumors [3]
Nc1cc(C(F)(F)F)c(-c2cc(N3CCOCC3)nc(N3CCOCC3)n2)cn1 [BKM120, 5-(2,6-dimorpholin-4-ylpyrimidin-4-yl)-4-(trifluoromethyl)pyridin-2-amine] | neither BKM120 nor RAD001 monotherapy had meaningful effects | permeates the blood-brain barrier | did not decrease
COC1(c2sc3c(N4CCOCC4)nc(-c4cnc(N)nc4)nc3c2C)COC1 [GNE-317, 5-(6-(3-methoxyoxetan-3-yl)-7-methyl-4-morpholinothieno[3,2-d]pyrimidin-2-yl)pyrimidin-2-amine] | marked regression | effectively crossing the blood brain barrier | 
CO[C@H]1C[C@@H]2CC[C@@H](C)[C@@](O)(O2)C(=O)C(=O)N2CCCC[C@H]2C(=O)O[C@H]([C@H](C)C[C@@H]2CC[C@@H](OCCO)[C@H](OC)C2)CC(=O)[C@H](C)/C=C(\C)[C@@H](O)[C@@H](OC)C(=O)[C@H](C)C[C@H](C)/C=C/C=C/C=C/1C [RAD001] | neither BKM120 nor RAD001 monotherapy had meaningful effects | demonstrated blood-brain barrier (BBB) penetrance | 
